Here are results for 14 molecules from US9150510B2, “Amino acid derivative” (NIPPON ZOKI PHARMACEUTICAL CO., LTD., priority 2008, dated 2015).

The subject of one data set is ddY-type mice. The data set can be described thus: Analgesic efficacy test (1): acetic acid writhing test (nociceptive pain model animal). The note with it: Mus musculus, 25 min, writhing number, male ddY mice, acetic acid i.p. 25 min after administration, mean ± standard error, read-out: Percent Suppression (%); for inhibition in vivo at 10 mg/kg: oral single dose 10 mg/kg; for inhibition in vivo at 100 mg/kg: oral single dose 100 mg/kg. The class given is in vivo. The text has this: A compound of the present invention was orally administered to mice, to carry out an analgesic efficacy test according to acetic acid writhing test (nociceptive pain model animal). As an experimental animal, 4-week old male ddY-type mice were previously bred, and thereafter 8 mice per one group were used in the experiment. A solution or suspension prepared by dissolving or suspending a compound of the present invention in a 0.5% (w/v) aqueous CMC-Na solution was orally administered as a test substance in a single dose. While, to a control group, a 0.5% (w/v) aqueous CMC-Na solution was administered in the same manner. After 25 minutes from administration, the mice were intraperitoneally administered with a 0.7% (v/v) acetic acid/physiological saline at the dose of 10 mL/kg. From 5 minutes thereafter, writhing number in a 10-minute period was counted, and a suppressive rate for each individual (mean±standard error) was calculated by the following formula: […]
In the test for significance difference, Baltlett's test was carried out in the comparison between multiple groups of the group administered with test substance with the control group. In the case of homoscedasticity, Dunnett's multiple comparison test of parametrics, and in the case of heteroscedasticity, Dunnett's multiple comparison test of non-parametrics were used. In addition, in the test of dose dependency, Jockheere-Terpstra's test was used. In all cases, significance difference was considered to be found at P<0.05.
In general terms: In writhing tests, fewer writhes than in controls are read as antinociception.

A further data set concerns Chung model rat. The experiment in a line: Analgesic efficacy test (2): Chung model rat, neuropathic pain model (allodynia, von Frey filament). The class given is in vivo. Particulars: Table 13, Wistar male rats, L5 spinal nerve ligation, mean ± standard error. How it is done:
An analgesic efficacy test was conducted using a Chung model rat, a neuropathic pain model. Using Wistar male rats after passing 9-week old as an experimental animal, a model rat was prepared in accordance with the method of Kim and Chung (Pain, 50, 355-363, 1992). Specifically, left L5 spinal nerves of rats were exposed under anesthetization with pentobarbital (35 mg/kg, intraperitoneal administration), and firmly ligated with 5-0 silk yarn at L5 dorsal root ganglion peripheral side. The animals were placed in a transparent acrylic cage of which bottom was wire netted The measurement of allodynia was carried out using von Frey filament (manufactured by North Coast Medical Inc.) and a 50% reaction threshold was calculated according to an up-down method, in accordance with methods of Chaplan et al. (J. Neurosci. Method, 53, 55-63, 1994) and Lee et al. (J. Neurophysiol., 81, 2226-2233, 1999). The 50% reaction thresholds were measured twice before injury of the spinal nerve, and those animals of which thresholds were outside the standard were removed from the operation of spinal nerve injury. On or after 14 days from the spinal nerve injury, a 50% reaction threshold was measured, and those showing thresholds of 1 g or more and less than 4 g were used as experimental animal. The group was constituted by 7 rats per group so that an average of a 50% reaction threshold for each group would be nearly even.
A solution or suspension prepared by dissolving or suspending a compound of the present invention in a 0.5% (w/v) aqueous CMC-Na solution was orally administered as a test substance in a single dose while, a 0.5% (w/v) aqueous CMC-Na solution was administered in the same manner to the control group for nerve injury. After 30 minutes from the administration, the measurement of allodynia was carried out, and a 50% reaction threshold (mean±standard error) was calculated. In the test for significance difference, Baltlett's test was carried out in the comparison between multiple groups of the group administered with test substance with the control group for nerve injury. In the case of homoscedasticity, Dunnett's multiple comparison test of parametrics, and in the case of heteroscedasticity, Dunnett's multiple comparison test of non-parametrics were used. In all cases, significance difference was considered to be found at P<0.05.

Data set [1] can be described thus: Test of blood kinetics in the rats. The note with it: rat, plasma, 2 mg/kg, fasted Wistar male rats, oral single dose of mixed solution of five compounds, each compound 2 mg/5 mL/kg, n=5, LC-MS; for AUC(0-inf): read-out: AUC0-∞ (area under the curve for concentration in blood, time 0 to infinite hours); for Cmax: read-out: Cmax (maximum concentration in plasma). The class given is in vivo. How it is done: Ten milligrams of a compound of the present invention was properly converted to a sodium salt with the same amount of sodium hydroxide, where necessary, and each was dissolved in 5 mL of water. Five compounds each among these aqueous solutions of the compounds of the present inventions were mixed, to prepare a mixed solution containing 0.4 mg/mL each of each compound. Six-week old Wistar SPF male rats that were fasted were orally administered with the mixed solution in a single dose using a gavage tube (each compound 2 mg/5 mL/kg, n=5). At time points of 0.25, 0.5, 1, 2, 4, and 8 hours after the administration, about 150 μL of blood was collected using a heparin-added capillary tube from veins of rat tails. The capillary tubes were centrifuged to collect the plasma. The plasma sample was deprotenized and the supernatant was diluted to prepare each of measurement sample solutions. The concentration of the compound of the present invention in each of measurement sample solutions was quantified using LC-MS, and Cmax (maximum concentration in plasma) and AUC (area under the curve for concentration in blood, time 0 to infinite (∞) hours) of the compounds of the present invention were calculated.

The structures appear in SMILES notation. Where a name gives a salt, the structure may show the parent alone.

`O=C(C=Cc1ccc(O)cc1)N[C@@H](Cc1c[nH]c2ccccc12)C(=O)O` (as salt: sodium) [Compound 7, N^α-[3-(4-Hydroxyphenyl)acryloyl]-L-tryptophan] yielded a melting point of 158 to 159 °C.
Still for that read-out and setting: the same measure for `O=C(C=Cc1ccc(F)cc1)N[C@@H](Cc1c[nH]c2ccccc12)C(=O)O` (as salt: sodium) [Compound 5, N^α-[3-(4-Fluorophenyl)acryloyl]-L-tryptophan]: 140 to 141 °C; for `N#Cc1ccccc1C=CC(=O)N[C@@H](Cc1c[nH]c2ccccc12)C(=O)O` (as salt: sodium) [Compound 9, N^α-[3-(2-Cyanophenyl)acryloyl]-L-tryptophan]: 124 to 125 °C; for `O=C(C=Cc1ccccc1O)N[C@@H](Cc1c[nH]c2ccccc12)C(=O)O` (as salt: sodium) [Compound 2, N^α-[3-(2-Hydroxyphenyl)acryloyl]-L-tryptophan]: 172 to 173 °C.
Regarding `O=C(C=Cc1ccccc1)N[C@@H](Cc1c[nH]c2ccccc12)C(=O)O` [Compound 8, N^α-(3-Phenylacryloyl)-L-tryptophan], in the data set with ddY-type mice, the inhibition in vivo at 10 mg/kg was determined as 67.7 ± 10.3%. In the data set on Chung model rat (oral single dose 10 mg/kg), the “50% Reaction Threshold (g), Group Administered with Test Substance, 30 Min. After Administration” value (“50% Reaction Threshold (g)” below) is on record as 8.39 ± 1.30 g. In data set [1], the AUC(0-inf) was 21900 ng·h/mL and the Cmax was 5000 ng/mL.
On to `O=C(C=Cc1ccc(F)cc1)N[C@@H](Cc1c[nH]c2ccccc12)C(=O)O` [Compound 5, N^α-[3-(4-Fluorophenyl)acryloyl]-L-tryptophan], for which the inhibition in vivo at 10 mg/kg in the data set on ddY-type mice was 51.3 ± 10.9%. Further, the “50% Reaction Threshold (g)” value in the data set with Chung model rat (oral single dose 10 mg/kg) was found to be 6.87 ± 1.28 g. Besides, in data set [1], the AUC(0-inf) was 14600 ng·h/mL and the Cmax was 2300 ng/mL.
As to `C=CC(=O)N[C@@H](Cc1ccc(OC)cc1)C(=O)O` [Compound 38, N-Acryloyl-O^4-methyl-L-tyrosine], the inhibition in vivo at 100 mg/kg with ddY-type mice is 52 ± 8.2%. Also, the “50% Reaction Threshold (g)” value in the data set with Chung model rat (oral single dose 1 mg/kg) came to 5.44 ± 0.75 g. Besides, in data set [1], the AUC(0-inf) came to 8500 ng·h/mL and the Cmax turned out to be 2800 ng/mL.
On to `O=C(C=Cc1cccc(F)c1)N[C@@H](Cc1c[nH]c2ccccc12)C(=O)O` [Compound 4, N^α-[3-(3-Fluorophenyl)acryloyl]-L-tryptophan], for which the inhibition in vivo at 100 mg/kg with ddY-type mice was determined as 42.4 ± 8.3%. Moreover, the “50% Reaction Threshold (g)” value in the data set on Chung model rat (oral single dose 10 mg/kg) is listed as 10.73 ± 1.59 g. Further, in data set [1], the AUC(0-inf) worked out at 28700 ng·h/mL and the Cmax turned out to be 4300 ng/mL.
The molecule `C=CC(=O)N[C@@H](Cc1c[nH]c2ccccc12)C(=O)O` (as salt: sodium) [Compound 1, N^α-Acryloyl-L-tryptophan] came in with a melting point of 150 to 151 °C.
Molecule `O=C(C=Cc1ccccc1F)N[C@@H](Cc1c[nH]c2ccccc12)C(=O)O` [Compound 3, N^α-[3-(2-Fluorophenyl)acryloyl]-L-tryptophan] came in with a melting point of 104 to 105 °C. In the data set with ddY-type mice (oral single dose 3 mg/kg), the inhibition in vivo at 3 mg/kg amounted to 36.9 ± 10.6%. In addition, in data set [1], the AUC(0-inf) was 26200 ng·h/mL and the Cmax was 5800 ng/mL.
Turning to `O=C(C=Cc1ccc(F)cc1F)N[C@@H](Cc1c[nH]c2ccccc12)C(=O)O` [Compound 14, N^α-[3-(2,4-Difluorophenyl)acryloyl]-L-tryptophan], the inhibition in vivo at 10 mg/kg with ddY-type mice came to 43.2 ± 10.9%. Also, the “50% Reaction Threshold (g)” value in the data set on Chung model rat (oral single dose 10 mg/kg) is listed as 9.38 ± 1.68 g. Also, in data set [1], the AUC(0-inf) amounted to 33900 ng·h/mL and the Cmax came out at 4800 ng/mL.
On to `O=C(C=Cc1cccc(O)c1)N[C@@H](Cc1c[nH]c2ccccc12)C(=O)O` (as salt: sodium) [Compound 6, N^α-[3-(3-Hydroxyphenyl)acryloyl]-L-tryptophan], for which the melting point was 163 to 164 °C.
Turning to `O=C(N[C@@H](Cc1c[nH]c2ccccc12)C(=O)O)c1cc2ccccc2o1` [Compound 20, N^α-(Benzofuran-2-carbonyl)-L-tryptophan], in the data set with ddY-type mice, the inhibition in vivo at 100 mg/kg amounted to 41.6 ± 6%. Also, the “50% Reaction Threshold (g)” value in the data set on Chung model rat (oral single dose 1 mg/kg) is 6.13 ± 0.75 g. Also, in data set [1], the AUC(0-inf) was found to be 10200 ng·h/mL and the Cmax amounted to 3000 ng/mL.
Consider `O=C(C=Cc1cc(F)ccc1F)N[C@@H](Cc1c[nH]c2ccccc12)C(=O)O` [Compound 15, N^α-[3-(2,5-Difluorophenyl)acryloyl]-L-tryptophan], for which, in the data set on ddY-type mice, the inhibition in vivo at 100 mg/kg turned out to be 61.3 ± 9.9%. Also, the “50% Reaction Threshold (g)” value with Chung model rat (oral single dose 10 mg/kg) is recorded as 9.12 ± 1.55 g. For the same molecule, in data set [1], the AUC(0-inf) turned out to be 19400 ng·h/mL and the Cmax stood at 2800 ng/mL.

As usually defined, the melting point is the temperature of the solid-liquid transition.
